PubChem BioAssay (NCI)
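96-well plates; 48 h exposure; 5 concentrations. Endpoints by linear interpolation between flanking doses. Not reached: highest tested concentration assigned. Here, GI50 denotes the concentration required for 50% inhibition of growth. TGI denotes the concentration required for complete inhibition of growth.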

Experiments:
Test in all cases: growth of human tumour cells (NCI), 48 h
UACC-257 melanoma = system: UACC-257 melanoma
DU-145 prostate = system: DU-145 prostate
MALME-3M melanoma = system: MALME-3M melanoma
CCRF-CEM leukemia = system: CCRF-CEM leukemia
SF-539 CNS = system: SF-539 CNS
SK-MEL-5 melanoma = system: SK-MEL-5 melanoma
A498 renal = system: A498 renal
HOP-92 NSCLC = system: HOP-92 NSCLC
HT29 colon = system: HT29 colon
786-0 renal = system: 786-0 renal
RXF 393 renal = system: RXF 393 renal
HCT-116 colon = system: HCT-116 colon
SK-MEL-28 melanoma = system: SK-MEL-28 melanoma
T-47D breast = system: T-47D breast
SNB-19 CNS = system: SNB-19 CNS
SK-OV-3 ovarian = system: SK-OV-3 ovarian
PC-3 prostate = system: PC-3 prostate
MDA-MB-231 breast = system: MDA-MB-231 breast
HS 578T breast = system: HS 578T breast
IGROV1 ovarian = system: IGROV1 ovarian
NCI-H226 lung = system: NCI-H226 lung
COLO 205 colon = system: COLO 205 colon
HCT-15 colon = system: HCT-15 colon
SF-268 CNS = system: SF-268 CNS
MCF7 breast = system: MCF7 breast
OVCAR-8 ovarian = system: OVCAR-8 ovarian
U251 CNS = system: U251 CNS
SN12C renal = system: SN12C renal

COc1cc(OC)c(S(=O)(=O)N(CCCl)CCCl)cc1C(=O)/C=C/c1cc(OC)c(OC)c(OC)c1
GI50 (UACC-257 melanoma): 1.66 µM
TGI (UACC-257 melanoma): 3.89 µM
GI50 (DU-145 prostate): 2.71 µM
TGI (DU-145 prostate): 14.8 µM
GI50 (MALME-3M melanoma): 2.48 µM
TGI (MALME-3M melanoma): 7.18 µM
GI50 (CCRF-CEM leukemia): 1.69 µM
TGI (CCRF-CEM leukemia): > 100 µM
GI50 (SF-539 CNS): 1.73 µM
TGI (SF-539 CNS): 3.61 µM
GI50 (SK-MEL-5 melanoma): 1.84 µM
TGI (SK-MEL-5 melanoma): 3.64 µM
GI50 (A498 renal): 2.79 µM
TGI (A498 renal): 7.23 µM
GI50 (HOP-92 NSCLC): > 100 µM
TGI (HOP-92 NSCLC): > 100 µM
GI50 (HT29 colon): 2.34 µM
TGI (HT29 colon): 5.92 µM
GI50 (786-0 renal): 1.95 µM
TGI (786-0 renal): 5.66 µM
GI50 (RXF 393 renal): 1.24 µM
TGI (RXF 393 renal): 2.83 µM
GI50 (HCT-116 colon): 1.23 µM
TGI (HCT-116 colon): 2.82 µM
GI50 (SK-MEL-28 melanoma): 1.82 µM
TGI (SK-MEL-28 melanoma): 3.54 µM
GI50 (T-47D breast): 3.53 µM
TGI (T-47D breast): > 100 µM
GI50 (SNB-19 CNS): 2.37 µM
TGI (SNB-19 CNS): 5.71 µM
GI50 (SK-OV-3 ovarian): 3.47 µM
TGI (SK-OV-3 ovarian): 13 µM
GI50 (PC-3 prostate): 3.85 µM
TGI (PC-3 prostate): > 100 µM
GI50 (MDA-MB-231 breast): 3.95 µM
TGI (MDA-MB-231 breast): > 100 µM
GI50 (HS 578T breast): 8.55 µM
TGI (HS 578T breast): > 100 µM
GI50 (IGROV1 ovarian): 3.09 µM
TGI (IGROV1 ovarian): 9.05 µM
GI50 (NCI-H226 lung): 2.61 µM
TGI (NCI-H226 lung): 8.95 µM
GI50 (COLO 205 colon): 2.37 µM
TGI (COLO 205 colon): 4.46 µM
GI50 (HCT-15 colon): 1.12 µM
TGI (HCT-15 colon): 3.98 µM
GI50 (SF-268 CNS): 2.62 µM
TGI (SF-268 CNS): 7.7 µM
GI50 (MCF7 breast): 1.01 µM
TGI (MCF7 breast): 4.36 µM
GI50 (OVCAR-8 ovarian): 4.06 µM
TGI (OVCAR-8 ovarian): > 100 µM
GI50 (U251 CNS): 1.78 µM
TGI (U251 CNS): 3.68 µM
GI50 (SN12C renal): 2.26 µM
TGI (SN12C renal): 13 µM
